{"source": "the Deep4Chem optical property database", "experiment": "solvent given as SMILES"}
{"smiles": "c1ccc(N(c2ccccc2)c2ccc(-c3ccc4c(c3)C3(c5cc(-c6ccc(N(c7ccccc7)c7ccccc7)cc6)ccc5S4)c4ccccc4-c4ccccc43)cc2)cc1", "values": [{"measurement": "emission maximum", "setting": "in CC(C)=O", "value": 414.99, "unit": "nm"}, {"measurement": "emission maximum", "setting": "in CCCCCC", "value": 392.96, "unit": "nm"}, {"measurement": "emission maximum", "setting": "in CN(C)C=O", "value": 421.13, "unit": "nm"}, {"measurement": "emission maximum", "setting": "in Cc1ccccc1", "value": 398.74, "unit": "nm"}, {"measurement": "emission maximum", "setting": "in ClCCl", "value": 410, "unit": "nm"}]}
{"smiles": "Fc1ccc2sc3nc(-c4ccccc4)sc3c2c1", "values": [{"measurement": "emission maximum", "setting": "in CS(C)=O", "value": 409, "unit": "nm"}]}
{"smiles": "CC(C)(C)c1cc2c3cc(C(C)(C)C)c(-c4cc5cc6c7cccc8cccc(c9cc(C(C)(C)C)cc(c5cc4C(C)(C)C)c96)c87)cc3cc3c4cccc5cccc(c(c1)c23)c54", "values": [{"measurement": "emission maximum", "setting": "in CC1CCCCC1", "value": 454, "unit": "nm"}]}
{"smiles": "N#CC(C#N)=Cc1ccc2c(c1)c1ccccc1n2-c1cccc2ccccc12", "values": [{"measurement": "emission maximum", "setting": "in ClCCl", "value": 473, "unit": "nm"}]}
{"smiles": "CN1C(=CC2=C([S-])C(=CC3=[N+](C)c4ccccc4C3(C)C)C2=O)C(C)(C)c2ccccc21", "values": [{"measurement": "emission maximum", "setting": "in ClC(Cl)Cl", "value": 663, "unit": "nm"}]}
{"smiles": "O=c1c2ccc(N3CCCCC3)cc2oc2cc(N3CCCCC3)ccc12", "values": [{"measurement": "emission maximum", "setting": "in CO", "value": 448.15, "unit": "nm"}, {"measurement": "emission maximum", "setting": "in ClCCl", "value": 407.47, "unit": "nm"}]}
{"smiles": "Cc1ccc(C(=O)OCc2ccc3c4cccc5cccc(c6cccc2c63)c54)cc1", "values": [{"measurement": "emission maximum", "setting": "in CCO", "value": 445, "unit": "nm"}]}
{"smiles": "CCn1c(=O)nc2n(C)c3cc(C)ccc3nc-2c1=O", "values": [{"measurement": "emission maximum", "setting": "in C1COCCO1", "value": 527, "unit": "nm"}, {"measurement": "emission maximum", "setting": "in CC#N", "value": 530, "unit": "nm"}, {"measurement": "emission maximum", "setting": "in CO", "value": 532, "unit": "nm"}, {"measurement": "emission maximum", "setting": "in ClCCCl", "value": 531, "unit": "nm"}]}
{"smiles": "CCC1=C(CC)C(C)=[N+]2C1=Cc1c(C)c3cc4c(cc3n1[B-]2(F)F)=[N+]1C(=Cc2c(CC)c(CC)c(C)n2[B-]1(F)F)C=4C", "values": [{"measurement": "emission maximum", "setting": "in ClC(Cl)Cl", "value": 703, "unit": "nm"}]}
{"smiles": "c1ccc2c[n+]3ccccc3cc2c1", "values": [{"measurement": "emission maximum", "setting": "in O", "value": 404, "unit": "nm"}]}
{"smiles": "Cc1cc(C)c(B(c2ccsc2-c2sccc2P(=O)(c2ccccc2)c2ccccc2)c2c(C)cc(C)cc2C)c(C)c1", "values": [{"measurement": "emission maximum", "setting": "in CO", "value": 512, "unit": "nm"}]}
{"smiles": "CC1=C(c2cccs2)C(C)=[N+]2C1=C(c1ccccc1)c1c(C)c(-c3cccs3)c(C)n1[B-]2(F)F", "values": [{"measurement": "emission maximum", "setting": "in CO", "value": 610, "unit": "nm"}, {"measurement": "emission maximum", "setting": "in Cc1ccccc1", "value": 609, "unit": "nm"}, {"measurement": "emission maximum", "setting": "in ClCCl", "value": 609, "unit": "nm"}]}
{"smiles": "COc1cc(N(CC(=O)[O-])CC(=O)[O-])c2ncccc2c1", "values": [{"measurement": "emission maximum", "setting": "in O", "value": 487, "unit": "nm"}]}
{"smiles": "CC(C)(C)c1cc(C(C)(C)C)c(-c2nnc(-c3ccc(-n4c5ccccc5c5ccccc54)cc3)o2)c(C(C)(C)C)c1", "values": [{"measurement": "emission maximum", "setting": "in CCO", "value": 432, "unit": "nm"}, {"measurement": "emission maximum", "setting": "in Cc1ccccc1", "value": 376, "unit": "nm"}]}
{"smiles": "CC(C)(C)NC(=O)c1cccc2ccc3c4cc(F)ccc4c4ccc(F)cc4c3c12", "values": [{"measurement": "emission maximum", "setting": "in ClCCl", "value": 385, "unit": "nm"}]}
{"smiles": "CC1=CC(C)=[N+]2C1=C(c1ccc(-c3c4ccccc4c(-c4ccccc4)c4ccccc34)cc1)c1c(C)cc(C)n1[B-]2(F)F", "values": [{"measurement": "emission maximum", "setting": "in CC#N", "value": 508, "unit": "nm"}, {"measurement": "emission maximum", "setting": "in CCCCCC", "value": 511, "unit": "nm"}, {"measurement": "emission maximum", "setting": "in CCO", "value": 510, "unit": "nm"}, {"measurement": "emission maximum", "setting": "in CN(C)C=O", "value": 510, "unit": "nm"}, {"measurement": "emission maximum", "setting": "in Cc1ccccc1", "value": 515, "unit": "nm"}, {"measurement": "emission maximum", "setting": "in ClCCl", "value": 512, "unit": "nm"}]}
{"smiles": "CC(C)CCC[C@@H](C)[C@H]1CC[C@H]2[C@@H]3CC=C4C[C@@H](OC(=O)Oc5cc(/C=C/C=C/c6ccc(N(C)C)cc6)ccc5[N+](=O)[O-])CC[C@]4(C)[C@H]3CC[C@]12C", "values": [{"measurement": "emission maximum", "setting": "in C1CCCCC1", "value": 505, "unit": "nm"}, {"measurement": "emission maximum", "setting": "in C1CCOC1", "value": 677, "unit": "nm"}, {"measurement": "emission maximum", "setting": "in C1COCCO1", "value": 620, "unit": "nm"}, {"measurement": "emission maximum", "setting": "in CCCCCCC", "value": 502, "unit": "nm"}, {"measurement": "emission maximum", "setting": "in Cc1ccccc1", "value": 595, "unit": "nm"}]}
{"smiles": "O=S(=O)(c1ccc(N2c3ccccc3N(c3ccccc3)c3ccccc32)cc1)c1ccc(N2c3ccccc3N(c3ccccc3)c3ccccc32)cc1", "values": [{"measurement": "emission maximum", "setting": "in Cc1ccccc1", "value": 577, "unit": "nm"}, {"measurement": "emission maximum", "setting": "in c1cc(-n2c3ccccc3c3ccccc32)cc(-n2c3ccccc3c3ccccc32)c1", "value": 580, "unit": "nm"}]}
{"smiles": "CC1(C)c2ccccc2N(c2ccc(C(=CC#N)c3ccc(N4c5ccccc5C(C)(C)c5ccccc54)cc3)cc2)c2ccccc21", "values": [{"measurement": "emission maximum", "setting": "in Cc1ccccc1", "value": 519, "unit": "nm"}]}
{"smiles": "c1ccc2c(c1)oc1nc3oc4ccc(-n5c6ccccc6c6ccccc65)cc4c3cc12", "values": [{"measurement": "emission maximum", "setting": "in ClC(Cl)Cl", "value": 448, "unit": "nm"}]}
{"smiles": "CC(C)(C)c1cc(-n2c(-c3ccc(C(=C(c4ccccc4)c4ccccc4)c4ccccc4)cc3)cc3c2cc(-c2ccc(C(=C(c4ccccc4)c4ccccc4)c4ccccc4)cc2)n3-c2cc(C(C)(C)C)cc(C(C)(C)C)c2)cc(C(C)(C)C)c1", "values": [{"measurement": "emission maximum", "setting": "in ClCCl", "value": 586, "unit": "nm"}]}
{"smiles": "CC(C)[Si](C#Cc1c2cc3ccccc3cc2c(C#Cc2ccc(C(F)(F)F)cc2)c2cc3ccccc3cc12)(C(C)C)C(C)C", "values": [{"measurement": "emission maximum", "setting": "in ClCCl", "value": 667, "unit": "nm"}]}
{"smiles": "N#Cc1c(N2CCCCC2)cc(-c2ccc3ccccc3c2)c2c1Cc1ccccc1-2", "values": [{"measurement": "emission maximum", "setting": "in C1CCOC1", "value": 465, "unit": "nm"}]}
